Source: patent publication US12372533B2, “Identification of immunogenic mutant peptides using genomic, transcriptomic and proteomic information” (Genentech, Inc., priority 2014, dated 2025)
Where a SMILES comes first, the peptide text is derived from it.

Columns and labels:
Format in all cases: in vivo, mouse
[1] = tested on: wild type C57BL/6 mice; assay: Immunization of mice with long peptides plus adjuvant, CD8 T cell response by MHCI/peptide-specific dextramers; details: long peptides encoding the mutated epitopes plus adjuvant, day 0 and day 14, compared to adjuvant alone; FIG. 4A
[2] = tested on: MC-38 tumors; assay: Peptide-specific CD8 tumor-infiltrating cells (TILs) in MC-38 tumors, dextramer staining; details: for peptide-specific CD8 T cells in the tumor bed: FIG. 4B
Excerpt: (§1) The immunogenicity of these mutated peptides was confirmed in the context of the tumor by analyzing tumor-infiltrating cells (TILs).
C57BL/6 mice were implanted subcutaneously on the right flank with 1×10^5 MC-38 tumor cells. The whole tumor was isolated and digested with collagenase and DNAase to isolate TILs. TILs were stained with dextramers (as described above) followed by antibodies against CD45, Thy1.2, CD4, CD8 (BD Biosciences), PD-1 (eBiosciences) and TIM-3 (R&D Systems). Live/dead stain was used to gate on live cells.

[3] = tested on: TRAMP-C1 tumors; assay: Peptide-specific CD8 tumor-infiltrating cells in syngeneic TRAMP-C1 tumors
Excerpt: as §1

| Compound | CD8 T cell response [1] | peptide-specific CD8 T cells in the tumor bed [2] | relative abundance of peptide-specific CD8 T cells among Reps1, Adpgk and Dpagt1 [2] | Adpgk-specific CD8 T cells in tumor [3] |
| --- | --- | --- | --- | --- |
| CC(C)C[C@H](NC(=O)[C@@H](NC(=O)[C@@H](NC(=O)[C@H](CC(=O)O)NC(=O)[C@H](CC(N)=O)NC(=O)[C@H](C)NC(=O)[C@H](CC(C)C)NC(=O)[C@H](CCC(N)=O)NC(=O)[C@H](C)N)C(C)C)C(C)C)C(=O)O [Reps1, AQLANDVVL] (H-AQLANDVVL-OH; N-terminus and C-terminus assumed) | strong CD8 T cell responses | enriched in the tumor bed |  |  |
| ASMTNMELM [Adpgk, mutant peptide presented on MHCI (H-2Db) in the MC-38 cell line] | strong CD8 T cell responses | enriched in the tumor bed | most abundant of the three | no Adpgk-specific CD8 T cells were detected |
| SIIVFNLL [Dpagt1, mutant peptide presented on MHCI (H-2Kb) in the MC-38 cell line] | weak CD8 T cells response | enriched in the tumor bed |  |  |
